Source: ChEMBL document CHEMBL1201862, “PubChem BioAssay data set” (2004)
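Tested at 5 concentrations; 48 h exposure; 96-well plates; endpoints linearly interpolated, else capped at highest concentration. GI50 = concentration required for 50% inhibition of growth.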 Calls of active or inactive are those of the source. Cut-off read from the data, not from the text of the source: active = GI50 up to about 1.1 µM and inactive = higher.

Key:
Test in all cases: inhibition of tumour cell growth, NCI panel, 48 h
BT-549 = test system: BT-549
LOX IMVI = test system: LOX IMVI
NCI-H23 = test system: NCI-H23
KM12 = test system: KM12
A549 = test system: A549
NCI-H226 = test system: NCI-H226
NCI-H460 = test system: NCI-H460
MDA-N = test system: MDA-N
M14 = test system: M14
UACC-62 = test system: UACC-62
HOP-62 = test system: HOP-62
SNB-75 = test system: SNB-75
NCI-H522 = test system: NCI-H522
PC-3 = test system: PC-3
COLO 205 = test system: COLO 205
MOLT-4 = test system: MOLT-4
SK-MEL-5 = test system: SK-MEL-5
RXF 393 = test system: RXF 393
HT-29 = test system: HT-29
U-251 = test system: U-251
OVCAR-4 = test system: OVCAR-4
Hs-578T = test system: Hs-578T
CAKI-1 = test system: CAKI-1
HL-60 = test system: HL-60
DU-145 = test system: DU-145
OVCAR-8 = test system: OVCAR-8
SNB-19 = test system: SNB-19
SF-268 = test system: SF-268
HCT-15 = test system: HCT-15
MDA-MB-435 = test system: MDA-MB-435
RPMI-8226 = test system: RPMI-8226
HOP-92 = test system: HOP-92
OVCAR-3 = test system: OVCAR-3
SW-620 = test system: SW-620
UACC-257 = test system: UACC-257
MDA-MB-231 = test system: MDA-MB-231
HCC 2998 = test system: HCC 2998
OVCAR-5 = test system: OVCAR-5
786-0 = test system: 786-0
A498 = test system: A498
SK-MEL-28 = test system: SK-MEL-28
EKVX = test system: EKVX
MCF7 = test system: MCF7
SN12C = test system: SN12C
ACHN = test system: ACHN
SK-OV-3 = test system: SK-OV-3
NCI/ADR-RES = test system: NCI/ADR-RES
UO-31 = test system: UO-31
IGROV-1 = test system: IGROV-1
SF-295 = test system: SF-295
SF-539 = test system: SF-539
T47D = test system: T47D
HCT-116 = test system: HCT-116
TK-10 = test system: TK-10
SK-MEL-2 = test system: SK-MEL-2
Malme-3M = test system: Malme-3M
K562 = test system: K562
CCRF-CEM = test system: CCRF-CEM

## O=C(O)/C=C/C(=O)Nc1nc[nH]n1
BT-549
  GI50: > 100 µM (inactive)
LOX IMVI
  GI50: > 100 µM (inactive)
NCI-H23
  GI50: > 100 µM (inactive)
KM12
  GI50: > 100 µM (inactive)
A549
  GI50: > 100 µM (inactive)
NCI-H226
  GI50: > 100 µM (inactive)
NCI-H460
  GI50: > 100 µM (inactive)
MDA-N
  GI50: > 100 µM (inactive)
M14
  GI50: > 100 µM (inactive)
UACC-62
  GI50: > 100 µM (inactive)
HOP-62
  GI50: > 100 µM (inactive)
SNB-75
  GI50: > 100 µM (inactive)
NCI-H522
  GI50: > 100 µM (inactive)
PC-3
  GI50: > 100 µM (inactive)
COLO 205
  GI50: > 100 µM (inactive)
MOLT-4
  GI50: 62.5 µM (inactive)
SK-MEL-5
  GI50: > 100 µM (inactive)
RXF 393
  GI50: > 100 µM (inactive)
HT-29
  GI50: > 100 µM (inactive)
U-251
  GI50: > 100 µM (inactive)
OVCAR-4
  GI50: > 100 µM (inactive)
Hs-578T
  GI50: > 100 µM (inactive)
CAKI-1
  GI50: > 100 µM (inactive)
HL-60
  GI50: 0.034 µM (active)
DU-145
  GI50: > 100 µM (inactive)
OVCAR-8
  GI50: > 100 µM (inactive)
SNB-19
  GI50: > 100 µM (inactive)
SF-268
  GI50: > 100 µM (inactive)
HCT-15
  GI50: > 100 µM
MDA-MB-435
  GI50: > 100 µM (inactive)
RPMI-8226
  GI50: > 100 µM (inactive)
HOP-92
  GI50: > 100 µM (inactive)
OVCAR-3
  GI50: > 100 µM (inactive)
SW-620
  GI50: > 100 µM (inactive)
UACC-257
  GI50: > 100 µM (inactive)
MDA-MB-231
  GI50: > 100 µM (inactive)
HCC 2998
  GI50: > 100 µM (inactive)
OVCAR-5
  GI50: > 100 µM (inactive)
786-0
  GI50: > 100 µM (inactive)
A498
  GI50: > 100 µM (inactive)
SK-MEL-28
  GI50: > 100 µM (inactive)
EKVX
  GI50: > 100 µM (inactive)
MCF7
  GI50: > 100 µM (inactive)
SN12C
  GI50: > 100 µM (inactive)
ACHN
  GI50: > 100 µM (inactive)
SK-OV-3
  GI50: > 100 µM (inactive)
NCI/ADR-RES
  GI50: > 100 µM (inactive)
UO-31
  GI50: > 100 µM (inactive)
IGROV-1
  GI50: > 100 µM (inactive)
SF-295
  GI50: > 100 µM (inactive)
SF-539
  GI50: > 100 µM (inactive)
T47D
  GI50: > 100 µM (inactive)
HCT-116
  GI50: > 100 µM (inactive)
TK-10
  GI50: > 100 µM (inactive)
SK-MEL-2
  GI50: > 100 µM (inactive)

## O=C1/C(=C/c2ccc(Cl)cc2)N=C(c2ccccc2)N1/N=C/c1ccccc1O
BT-549
  GI50: 16.4 µM (inactive)
LOX IMVI
  GI50: 13.2 µM (inactive)
NCI-H23
  GI50: > 100 µM (inactive)
KM12
  GI50: 12.9 µM (inactive)
A549
  GI50: 19.2 µM (inactive)
NCI-H226
  GI50: 19.2 µM (inactive)
NCI-H460
  GI50: 18 µM (inactive)
MDA-N
  GI50: 69.5 µM (inactive)
M14
  GI50: 2.84 µM (inactive)
UACC-62
  GI50: 13.9 µM (inactive)
HOP-62
  GI50: 1.87 µM (inactive)
SNB-75
  GI50: 6.31 µM (inactive)
NCI-H522
  GI50: 13.4 µM (inactive)
PC-3
  GI50: 10.3 µM (inactive)
COLO 205
  GI50: 16.3 µM (inactive)
MOLT-4
  GI50: 12.6 µM (inactive)
SK-MEL-5
  GI50: 15.1 µM (inactive)
RXF 393
  GI50: 11.4 µM (inactive)
HT-29
  GI50: 21.1 µM (inactive)
Malme-3M
  GI50: 1.98 µM (inactive)
U-251
  GI50: 5.27 µM (inactive)
OVCAR-4
  GI50: 4.57 µM (inactive)
Hs-578T
  GI50: 36.4 µM (inactive)
CAKI-1
  GI50: 7.6 µM (inactive)
HL-60
  GI50: 28.1 µM (inactive)
DU-145
  GI50: 21 µM (inactive)
OVCAR-8
  GI50: 5.51 µM (inactive)
SNB-19
  GI50: > 100 µM (inactive)
SF-268
  GI50: 14.8 µM (inactive)
HCT-15
  GI50: 30.9 µM
MDA-MB-435
  GI50: 26.7 µM (inactive)
K562
  GI50: 9.12 µM (inactive)
RPMI-8226
  GI50: 6.89 µM (inactive)
HOP-92
  GI50: 11.5 µM (inactive)
OVCAR-3
  GI50: 9.1 µM (inactive)
SW-620
  GI50: > 100 µM (inactive)
UACC-257
  GI50: > 100 µM (inactive)
MDA-MB-231
  GI50: 15.1 µM (inactive)
CCRF-CEM
  GI50: 2.11 µM (inactive)
OVCAR-5
  GI50: 12.7 µM (inactive)
SK-MEL-28
  GI50: 15.1 µM (inactive)
EKVX
  GI50: 4.66 µM (inactive)
MCF7
  GI50: 13.9 µM (inactive)
SN12C
  GI50: 23.4 µM (inactive)
ACHN
  GI50: 5.05 µM (inactive)
SK-OV-3
  GI50: 5.61 µM (inactive)
NCI/ADR-RES
  GI50: 18.2 µM (inactive)
UO-31
  GI50: 11.6 µM (inactive)
IGROV-1
  GI50: 8.26 µM (inactive)
SF-295
  GI50: 11.9 µM (inactive)
SF-539
  GI50: 10.9 µM (inactive)
T47D
  GI50: 6.27 µM (inactive)
HCT-116
  GI50: 2.44 µM (inactive)
TK-10
  GI50: 1.68 µM (inactive)
SK-MEL-2
  GI50: 17.1 µM (inactive)
